Common to all, as to test: relative viability (nuclei count vs DMSO), 5 days (fraction); higher = more cells survive
Compound in assay [1]: CCCS(=O)(=O)Nc1ccc(F)c(C(=O)c2c[nH]c3ncc(-c4ccc(Cl)cc4)cc23)c1F [Vemurafenib] + Nc1nc2[nH]cc(CCc3ccc(C(=O)N[C@@H](CCC(=O)O)C(=O)O)cc3)c2c(=O)[nH]1 [Pemetrexed] (partner 0.2 µM)
The essentials: (§1)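 Lung cancer cell lines, seeded in 1536-well plates, were treated the following day by pin tool with a single drug or with five library-drug doses (not always all listed) in √10 steps on top of a fixed anchor-drug dose. Cells were fixed and nuclei stained in one step after 5 days, and nuclei were counted. Relative viability is the nuclei count for treated wells divided by that for vehicle wells, reported as medians of duplicate plates.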

Compound in assay [2]: CCCS(=O)(=O)Nc1ccc(F)c(C(=O)c2c[nH]c3ncc(-c4ccc(Cl)cc4)cc23)c1F [Vemurafenib] + N=C(N)NC(=N)NCCc1ccccc1 [Phenformin] (partner 250 µM)
The method in brief: as §1

Compound in assay [3]: CCCS(=O)(=O)Nc1ccc(F)c(C(=O)c2c[nH]c3ncc(-c4ccc(Cl)cc4)cc23)c1F [Vemurafenib] + Cc1cc(Nc2cc(N3CCN(C)CC3)nc(Sc3ccc(NC(=O)C4CC4)cc3)n2)n[nH]1 [Tozasertib] (partner 0.1 µM)
The essentials: as §1

Compound in assay [4]: COc1cccc2cc(-c3nc([C@H]4CC[C@H](C(=O)O)CC4)n4ncnc(N)c34)[nH]c12 [OSI-027] + CC(=O)c1c(C)c2cnc(Nc3ccc(N4CCNCC4)cn3)nc2n(C2CCCC2)c1=O [Palbociclib] (partner 0.5 µM)
The method in brief: as §1

Turning to SW 900, the relative viability in assay [1] (first compound 0.03162 µM) amounted to 0.494; in assay [1] (first compound 0.1 µM) it was 0.466; in assay [1] (first compound 0.3162 µM) it was 0.457; in assay [1] (first compound 1 µM), 0.478; in assay [2] (first compound 0.03162 µM) it was 0.532; in assay [2] (first compound 0.1 µM), 0.454. Besides, the relative viability in assay [2] (first compound 0.3162 µM) came to 0.476; in assay [2] (first compound 1 µM), 0.614; in assay [3] (first compound 0.03162 µM), 0.455; in assay [3] (first compound 0.1 µM), 0.557; in assay [3] (first compound 0.3162 µM), 0.585; in assay [3] (first compound 1 µM), 0.435. Moreover, the relative viability in assay [4] (first compound 0.01 µM) was 0.531; in assay [4] (first compound 0.03162 µM), 0.579; in assay [4] (first compound 0.1 µM), 0.577; in assay [4] (first compound 0.3162 µM), 0.375; in assay [4] (first compound 1 µM), 0.288.
Turning to NCI-H1734, the relative viability was 0.396 in assay [1] (first compound 0.03162 µM); 0.382 in assay [1] (first compound 0.1 µM); 0.385 in assay [1] (first compound 0.3162 µM); 0.399 in assay [1] (first compound 1 µM); 0.403 in assay [2] (first compound 0.03162 µM); 0.358 in assay [2] (first compound 0.1 µM). The relative viability was 0.359 in assay [2] (first compound 0.3162 µM); 0.356 in assay [2] (first compound 1 µM); 0.269 in assay [3] (first compound 0.03162 µM); 0.246 in assay [3] (first compound 0.1 µM); 0.281 in assay [3] (first compound 0.3162 µM); 0.269 in assay [3] (first compound 1 µM). Further, the relative viability came to 0.396 in assay [4] (first compound 0.01 µM); 0.369 in assay [4] (first compound 0.03162 µM); 0.356 in assay [4] (first compound 0.1 µM); 0.311 in assay [4] (first compound 0.3162 µM); 0.255 in assay [4] (first compound 1 µM).
Turning to NCI-H358, the relative viability in assay [1] (first compound 0.03162 µM) stood at 0.208; in assay [1] (first compound 0.1 µM) it was 0.179; in assay [1] (first compound 0.3162 µM), 0.189; in assay [1] (first compound 1 µM), 0.193; in assay [2] (first compound 0.03162 µM), 0.282; in assay [2] (first compound 0.1 µM), 0.19. Further, the relative viability in assay [2] (first compound 0.3162 µM) was found to be 0.448; in assay [2] (first compound 1 µM), 0.455; in assay [3] (first compound 0.03162 µM) it was 0.122; in assay [3] (first compound 0.1 µM), 0.107; in assay [3] (first compound 0.3162 µM), 0.107; in assay [3] (first compound 1 µM) it was 0.111. Besides, the relative viability in assay [4] (first compound 0.01 µM) was 0.134; in assay [4] (first compound 0.03162 µM) it was 0.139; in assay [4] (first compound 0.1 µM), 0.125; in assay [4] (first compound 0.3162 µM), 0.103; in assay [4] (first compound 1 µM), 0.127.
For the cell line NCI-H650, the relative viability in assay [1] (first compound 0.03162 µM) worked out at 0.909; in assay [1] (first compound 0.1 µM), 0.913; in assay [1] (first compound 0.3162 µM) it was 0.551; in assay [1] (first compound 1 µM), 0.702; in assay [2] (first compound 0.03162 µM), 0.437; in assay [2] (first compound 0.1 µM), 0.443. In addition, the relative viability in assay [2] (first compound 1 µM) was found to be 0.37; in assay [3] (first compound 0.03162 µM), 0.696; in assay [3] (first compound 0.1 µM), 0.703; in assay [3] (first compound 1 µM), 0.614; in assay [4] (first compound 0.01 µM) it was 0.333; in assay [4] (first compound 0.03162 µM) it was 0.35. In addition, the relative viability is 0.302 in assay [4] (first compound 0.1 µM), 0.29 in assay [4] (first compound 0.3162 µM) and 0.205 in assay [4] (first compound 1 µM).
Turning to BEN, the relative viability in assay [1] (first compound 0.03162 µM) came to 0.627; in assay [1] (first compound 0.1 µM) it was 0.832; in assay [1] (first compound 0.3162 µM), 0.445; in assay [1] (first compound 1 µM), 0.619; in assay [2] (first compound 0.03162 µM) it was 0.255; in assay [2] (first compound 0.1 µM), 0.299. Besides, the relative viability in assay [2] (first compound 1 µM) amounted to 0.249; in assay [3] (first compound 0.03162 µM), 0.515; in assay [3] (first compound 0.1 µM) it was 0.52; in assay [3] (first compound 1 µM), 0.426; in assay [4] (first compound 0.01 µM) it was 0.487; in assay [4] (first compound 0.03162 µM), 0.47. The relative viability came to 0.425 in assay [4] (first compound 0.1 µM), 0.471 in assay [4] (first compound 0.3162 µM) and 0.472 in assay [4] (first compound 1 µM).
On to NCI-H647, for which the relative viability in assay [1] (first compound 0.03162 µM) was 0.164; in assay [1] (first compound 0.1 µM), 0.174; in assay [1] (first compound 0.3162 µM) it was 0.169; in assay [1] (first compound 1 µM), 0.198; in assay [2] (first compound 0.03162 µM), 0.439; in assay [2] (first compound 0.1 µM), 0.404. Besides, the relative viability was found to be 0.446 in assay [2] (first compound 0.3162 µM); 0.376 in assay [2] (first compound 1 µM); 0.262 in assay [3] (first compound 0.03162 µM); 0.263 in assay [3] (first compound 0.1 µM); 0.271 in assay [3] (first compound 0.3162 µM); 0.248 in assay [3] (first compound 1 µM). The relative viability in assay [4] (first compound 0.01 µM) was found to be 0.389; in assay [4] (first compound 0.03162 µM), 0.371; in assay [4] (first compound 0.1 µM), 0.351; in assay [4] (first compound 0.3162 µM) it was 0.354; in assay [4] (first compound 1 µM) it was 0.155.
Regarding NCI-H522, the relative viability turned out to be 0.855 in assay [1] (first compound 0.03162 µM); 0.98 in assay [1] (first compound 0.1 µM); 0.867 in assay [1] (first compound 0.3162 µM); 1.2 in assay [1] (first compound 1 µM); 0.651 in assay [2] (first compound 0.03162 µM); 0.536 in assay [2] (first compound 0.1 µM). Also, the relative viability in assay [2] (first compound 0.3162 µM) is 0.547; in assay [2] (first compound 1 µM), 0.622; in assay [3] (first compound 0.03162 µM), 0.609; in assay [3] (first compound 0.1 µM), 0.471; in assay [3] (first compound 0.3162 µM), 0.592; in assay [3] (first compound 1 µM) it was 0.631. Also, the relative viability amounted to 0.995 in assay [4] (first compound 0.01 µM); 0.938 in assay [4] (first compound 0.03162 µM); 1.04 in assay [4] (first compound 0.1 µM); 0.79 in assay [4] (first compound 0.3162 µM); 0.535 in assay [4] (first compound 1 µM).
As for NCI-H661, the relative viability in assay [1] (first compound 0.03162 µM) came out at 1.01; in assay [1] (first compound 0.1 µM) it was 0.929; in assay [1] (first compound 0.3162 µM), 0.978; in assay [1] (first compound 1 µM), 0.929; in assay [2] (first compound 0.03162 µM), 0.251; in assay [2] (first compound 0.1 µM), 0.289. The relative viability in assay [2] (first compound 0.3162 µM) turned out to be 0.258; in assay [2] (first compound 1 µM), 0.307; in assay [3] (first compound 0.03162 µM), 0.325; in assay [3] (first compound 0.1 µM), 0.334; in assay [3] (first compound 0.3162 µM), 0.396; in assay [3] (first compound 1 µM), 0.358. For the same cell line, the relative viability in assay [4] (first compound 0.01 µM) was found to be 0.375; in assay [4] (first compound 0.03162 µM) it was 0.424; in assay [4] (first compound 0.1 µM), 0.368; in assay [4] (first compound 0.3162 µM), 0.347; in assay [4] (first compound 1 µM) it was 0.301.

The values are drawn from the supplement of paper PMC10307832.
